Data from patent US20040241754A1, “Modulating neuronal plasticity” (The Salk Institute for Biological Studies, priority 2003, published 2004).
Entries after “also recorded” stand apart in the source; their conditions may differ. Square brackets hold non-standard residues; d marks the D form. Ends that are not written are not given here. pS = N[C@@H](COP(=O)(O)O)C(=O)O

Experiments:
[1] = system: mossy fiber synapses of hippocampal CA3 pyramidal neurons; experiment: Mossy fiber LTP, whole-cell patch clamp in hippocampal slices; type: cell-based, mice; details: for LTP (potentiation of the EPSC after tetanic stimulation): peptide 50 μM in patch electrode (postsynaptic), 25 to 30 minutes after tetanic stimulation; for LTP PPR (paired pulse ratio after LTP induction) / control PPR (paired pulse ratio before LTP induction): 40 ms interval
Protocol: The role of the GluR2 subunit in LTP at mossy fiber terminals was evaluated in whole cell patch clamp experiments using hippocampal CA3 pyramidal neurons. Briefly, transverse hippocampal slices (350 μm) were made from P12-18 mice (strain 129SvEv) as previously described (Contractor et al., Neuron 29, 209-16. (2001)). Slices were transferred to a recording chamber, and whole-cell patch clamp recordings made from visually identified pyramidal cells in the CA3 region of the hippocampus. The recording electrode (i.e., patch electrode) is filled with an “internal” solution described below. A seal between the glass of the electrode and the membrane of the cell is made. The seal is then “broken through” by pushing the electrode through the membrane to gain low resistance access to the cell interior and enable voltage clamping of the cell membrane. This also allows dialysis of the cell with test reagents such as peptides and antibodies. A stimulating electrode is attached to a current source and allows current to stimulate action potentials while a reference electrode is placed in the recording bath. The composition of the internal solution was: 95 mM CsF, 25 mM CsCl, 10 mM Cs-HEPES, 10 mM Cs-EGTA, 2 mM NaCl, 2 mM Mg-ATP, 10 mM QX-314, 5 mM TEA-Cl, 5 mM 4-AP, pH adjusted to 7.3 with CsOH.
Peptides were added directly to the internal solution on the day of the experiment from frozen stocks in protease inhibitors made up in phosphate buffered saline (PBS). To avoid leakage of peptides or antibodies into the extracellular space, pipette tips were filled with normal internal solution and then the pipette was backfilled with peptide/antibody containing internal fluid. The final concentration of peptides was 50 μM in all experiments. The final concentration of protease inhibitors were: bestatin 2 μg/ml, leupeptin 25 ng/ml, pepstatin 35 ng/ml, aprotinin 100 ng/ml.
In control experiments where peptides were not included, internal solutions were made up in exactly the same way with protease inhibitors in PBS but lacking any added peptide. Antibodies were made up in PBS stock and added directly to the internal solution at a final concentration of 20 μg/ml. The pH and osmolarity of all internal solutions were checked before use. Series resistances (Rs) were generally <10M and were continuously monitored throughout the duration of the experiment. […] Experiments using mutant mice were performed with heterozygous breedings blind to the genotype of the animal.
Mossy fiber EPSCs were evoked with a monopolar glass electrode positioned in the stratum lucidum. EPSCs were evaluated using a 40 ms interval between recordings. All recordings were made in the continuous presence of bicuculline (10 μM), picrotoxin (50 μM) and the NMDA receptor antagonist D-AP5 [D(-)-2-Amino-5-phosphonopentanoic acid; 50 μM]. The group II mGluR agonist, LCCG-1 (10 μM), which selectively depresses mossy fiber transmission, was applied at the end of each experiment. LTP was induced by tetanic stimulation comprising three 1 s stimulations (100 Hz) with a 10 s interval. Data are presented as mean±SEM. Parameters were compared using the Student's unpaired t-test where not specified, and the K-S test, p<0.05 was considered significant.
Cumulative probability is determined by ranking the EPSC data set from the highest to the lowest value from 20 to 30 minutes post tetanization. Each point is graphed with its corresponding percentile. […] The lowest LTP value was about 40% signified by the lowest point on the 1 st graph (open circles) and the largest LTP was about 160%.

GRIP PDZ4-6 = molecular target: T1, GRIP PDZ4-6 (Rattus norvegicus, UniProt P97879); experiment: Competitive binding of 35S-EphB2 to His-GRIP-PDZ4-6
T1 construct: corresponding to GRIP1 (amino acid 448-792); made in house; host or cells: E. coli BL21
T1 sequence (P97879 448-792): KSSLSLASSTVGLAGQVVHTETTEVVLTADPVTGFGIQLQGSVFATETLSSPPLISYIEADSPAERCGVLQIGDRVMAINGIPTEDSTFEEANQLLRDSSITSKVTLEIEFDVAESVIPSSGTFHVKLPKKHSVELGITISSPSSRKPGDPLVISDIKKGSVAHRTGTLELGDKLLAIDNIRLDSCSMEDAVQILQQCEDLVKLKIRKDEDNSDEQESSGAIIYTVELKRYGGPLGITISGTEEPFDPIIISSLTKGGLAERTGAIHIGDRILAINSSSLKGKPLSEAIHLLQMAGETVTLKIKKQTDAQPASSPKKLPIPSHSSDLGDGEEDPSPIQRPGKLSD
Protocol: A competitive binding assay was prepared to determine if the LTP inhibitory effects of the GluR2ct peptide were mediated through disruption of binding between Eph receptors and PDZ domain 6 of GRIP (Torres et al., Neuron 21, 1453-63. (1998)) as opposed to disruption of binding between the GluR2 subunit and the GluR2-binding PDZ 4 and 5 domains of GRIP (Dong et al., Nature 386, 279-84. (1997)). For this purpose, a binding assay was established between GRIP PDZ domain fragments (His-GRIP-PDZ4-6) and an EphB2 carboxy terminal fusion protein labeled with ^35S-methionine (^35S-EphB2).
Briefly, the carboxy terminal region of EphB2 corresponding to mouse EphB2 receptor (amino acid 930-993) was generated by PCR from mouse brain library and subcloned into pGEX2TK (Pharmacia). The GRIP(PDZ4-6) construct, corresponding to GRIP1 (amino acid 448-792) was obtained by PCR from an adult rat hippocampal library and subcloned into pRSET vector. E coli (strain BL21) were transformed with His-GRIP(PDZ4-6) and GST-EphB2 and protein production induced with IPTG. GST-EphB2 protein was purified on glutathionine beads and ^35S-EphB2 cleaved from GST with thrombin (1 U/μg). GRIP(PDZ4-6) protein was purified on Ni-NTA agarose, and eluted with imadazole. ^35S-EphB2 (50 nM) was incubated with (15 μg) of His-GRIP(PDZ4-6) protein in PBS buffer with protease inhibitors for 2 hrs at 22° C. in the absence or presence of peptides. ^35S-EphB2 binding to His-GRIP(PDZ4-6) was determined after a 45 min incubation with Ni-NTA agarose and vacuum filtration onto Whatman GFB filter circles (pretreated with 3% BSA). Filters were washed with ice-cold PBS buffer, allowed to equilibrate overnight in ECOLUME scintillation cocktail (ICN pharmaceuticals, Irvine Calif.), and specific counts measured in a scintillation counter. Non-specific binding was defined as the residual binding measured in the absence of His-GRIP(PDZ4-6).

[2] = system: mossy fiber synapses of hippocampal CA3 pyramidal neurons; experiment: Forskolin-mediated potentiation of mossy fiber EPSCs; type: cell-based, mice; details: EphB2 peptide in recording electrode
[3] = molecular target: postsynaptic EphB receptors; experiment: cell-based or functional assay
His-GRIP(PDZ4-6) = molecular target: T2, His-GRIP(PDZ4-6) (rat, UniProt P97879 448-792); experiment: displacement of ^35S-EphB2 (50 nM) from His-GRIP-PDZ4-6, Hill fit
T2 construct: range 448-792; not shown: His tag and vector residues from pRSET
T2 sequence (looked up): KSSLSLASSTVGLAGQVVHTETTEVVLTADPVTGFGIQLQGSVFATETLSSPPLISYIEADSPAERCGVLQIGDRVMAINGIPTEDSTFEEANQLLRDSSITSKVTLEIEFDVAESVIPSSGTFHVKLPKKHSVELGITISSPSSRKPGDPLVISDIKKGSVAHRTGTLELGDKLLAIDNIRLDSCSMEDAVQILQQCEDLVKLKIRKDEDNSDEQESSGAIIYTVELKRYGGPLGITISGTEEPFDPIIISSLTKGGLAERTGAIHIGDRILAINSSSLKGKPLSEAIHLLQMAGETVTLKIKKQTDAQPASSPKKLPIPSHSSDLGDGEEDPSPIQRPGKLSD

EphA8 = molecular target: T3, EphA8 (Mus musculus, UniProt O09127); details: read-out: Kd for binding to EphA8; cited from earlier work
T3 sequence (O09127 27-1004): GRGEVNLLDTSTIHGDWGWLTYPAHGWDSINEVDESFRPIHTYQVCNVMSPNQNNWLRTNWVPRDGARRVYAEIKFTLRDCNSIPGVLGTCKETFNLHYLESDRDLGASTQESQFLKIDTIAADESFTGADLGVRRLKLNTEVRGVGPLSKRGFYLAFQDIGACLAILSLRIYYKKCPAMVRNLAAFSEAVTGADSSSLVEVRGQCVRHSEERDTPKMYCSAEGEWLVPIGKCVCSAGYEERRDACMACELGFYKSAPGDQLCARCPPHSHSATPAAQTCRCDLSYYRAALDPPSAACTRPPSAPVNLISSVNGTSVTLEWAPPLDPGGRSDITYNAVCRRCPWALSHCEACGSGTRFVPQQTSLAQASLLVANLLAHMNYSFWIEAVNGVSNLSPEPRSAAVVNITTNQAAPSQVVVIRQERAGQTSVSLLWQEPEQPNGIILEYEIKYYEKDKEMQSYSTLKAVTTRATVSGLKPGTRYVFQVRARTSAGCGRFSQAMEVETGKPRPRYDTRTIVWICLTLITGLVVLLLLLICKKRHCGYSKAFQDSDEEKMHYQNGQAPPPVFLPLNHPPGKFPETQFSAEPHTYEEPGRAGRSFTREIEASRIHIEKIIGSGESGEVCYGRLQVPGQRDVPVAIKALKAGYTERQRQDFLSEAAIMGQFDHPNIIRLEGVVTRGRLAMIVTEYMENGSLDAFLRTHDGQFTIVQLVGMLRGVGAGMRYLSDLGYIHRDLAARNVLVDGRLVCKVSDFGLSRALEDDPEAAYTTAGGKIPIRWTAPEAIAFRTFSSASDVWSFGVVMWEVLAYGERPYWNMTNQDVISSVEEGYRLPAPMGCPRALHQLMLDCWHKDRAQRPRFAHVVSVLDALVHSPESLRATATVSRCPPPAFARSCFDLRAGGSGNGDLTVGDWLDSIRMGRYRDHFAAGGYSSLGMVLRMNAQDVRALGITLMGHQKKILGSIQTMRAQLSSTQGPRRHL

EphA3 = details: read-out: Kd for binding to EphA3; cited from earlier work
[4] = peptide 50 μM in patch electrode
[5] = peptide in patch electrode (postsynaptic)
[6] = peptide in patch electrode, 20 to 30 minutes post tetanization

QMNQIQSVEV [EphB2 peptide, Gln-Met-Asn-Gln-Ile-Gln-Ser-Val-Glu-Val]
LTP (potentiation of the EPSC after tetanic stimulation) [1]: 125±15% | LTP PPR (paired pulse ratio after LTP induction) [1, 4]: 2.5±0.27 | control PPR (paired pulse ratio before LTP induction) [1, 4]: 2.5±0.22 | PTP (post-tetanic potentiation) ([1]; peptide 50 μM in patch electrode, immediately following tetanic stimulation): 500±76% | effect on PTP [1, 5]: significantly impaired; also recorded: significantly depressed | effect on tetanus induced LTP [1, 5]: significantly impaired; also recorded: inhibit mossy fiber hippocampal CA3 neuronal LTP; also recorded: significantly depressed | largest LTP of single recordings (cumulative probability, FIG. 5) [1, 6]: about 160% | lowest LTP value of single recordings (cumulative probability, FIG. 5) [1, 6]: about 40% | Ki (GRIP PDZ4-6; 35S-EphB2 50 nM, fitted to the Hill equation, read-out: Ki, displacement of 35S-EphB2 binding to His-GRIP-PDZ 4-6): 43 nM | forskolin-mediated potentiation with peptide in the recording electrode [2]: 209±20%

R2ctPO4: phosphorylated GluR2/3 peptide; same as SEQ ID NO: 1 except the serine is phosphorylated (NVYGIE[pS]VKI) [reference compound]
LTP (potentiation of the EPSC after tetanic stimulation) [1]: 210±19% | LTP PPR (paired pulse ratio after LTP induction) [1, 4]: 2.5±0.16 | control PPR (paired pulse ratio before LTP induction) [1, 4]: 3.0±0.18 | effect on tetanus induced LTP [1, 5]: little effect on induction of LTP | effect on tetanus induced LTP ([1]; peptide in patch electrode (postsynaptic), listed as GluR2ctPO4): do not inhibit LTP | displacement of labeled EphB2 from GRIP PDZ4-6 (GRIP PDZ4-6; concentrations of up to 10 μM peptide, listed as GluR2ctPO4): unable to displace binding; also recorded: do not inhibit binding of EphB2 to GRIP

B1: ephrin-B1-Fc fusion protein (Fc fusion, mouse, not shown: a dimerising Fc or GST)
chain (part 1 of 2): ATPLAKNLEPVSWSSLNPKFLSGKGLVIYPKIGDKLDIICPRAEAGRPYEYYKLYLVRPEQAAACSTVLDPNVLVTCNKPHQEIRFTIKFQEFSPNYMGLEFKKYHDYYITSTSNGSLEGLENREGGVCRTRTMKIVMKVGQDPNAVTPEQLTTSRPSKESDNTVKTATQAPGRGSQGDSDGKHETVNQEEKSGPGAGGGGSGDSIEGRMD
chain (part 2 of 2): HHHHH
LTP after tetanus in the presence of ephrinB1-Fc (5 µg/ml) [3]: 139% | forskolin potentiation of mossy fiber EPSCs after pre-application of ephrin-B1-Fc [3]: 219% | post-tetanic potentiation [3]: 430%

QMNQIQSVEV (also called EphB2 peptide) [EphB2 carboxy terminal peptide]
Ki (His-GRIP(PDZ4-6)): 43 nM

B2: ephrin-A5: a 28 kDa, 228 amino acid glycoprotein; ephrin ligand (protein, UniProt P52803 1-228, looked up)
chain: MLHVEMLTLVFLVLWMCVFSQDPGSKAVADRYAVYWNSSNPRFQRGDYHIDVCINDYLDVFCPHYEDSVPEDKTERYVLYMVNFDGYSACDHTSKGFKRWECNRPHSPNGPLKFSEKFQLFTPFSLGFEFRPGREYFYISSAIPDNGRRSCLKLKVFVRPTNSCMKTIGVHDRVFDVNDKVENSLEPADDTVHESAEPSRGENAAQTPRIPSRLLAILLFLLAMLLTL
modifications: full-length
notes: a 28 kDa, 228 amino acid glycoprotein; ephrin ligand
Kd (EphA8): 0.5 nM

B3: ephrin-A3: a 238 amino acid polypeptide; ephrin ligand (protein, UniProt P52797 1-238, looked up)
chain: MAAAPLLLLLLLVPVPLLPLLAQGPGGALGNRHAVYWNSSNQHLRREGYTVQVNVNDYLDIYCPHYNSSGVGPGAGPGPGGGAEQYVLYMVSRNGYRTCNASQGFKRWECNRPHAPHSPIKFSEKFQRYSAFSLGYEFHAGHEYYYISTPTHNLHWKCLRMKVFVCCASTSHSGEKPVPTLPQFTMGPNVKINVLEDFEGENPQVPKLEKSISGTSPKREHLPLAVGIAFFLMTFLAS
modifications: full-length
notes: a 238 amino acid polypeptide; ephrin ligand
Kd (EphA8): 1.1 nM | Kd (EphA3): 5 nM
